Laboratory results published in ChEMBL document CHEMBL1201861, “Genomics of Drug Sensitity in Cancer screening data, Wellcome Trust Sanger Institute”.

Legend:
EB-3 = assay: cells; format: functional, cell-based, Homo sapiens; conditions: Homo sapiens, EB-3;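 further: human EB-3 cells, growth inhibition read out via a cell viability assay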
Description: SANGER: Inhibition of human EB-3 cell growth in a cell viability assay.

J82 = assay: cells; format: functional, cell-based, Homo sapiens; conditions: Homo sapiens, J82;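 further: growth inhibition of J82 cells, read out with a cell viability assay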
Description: SANGER: Inhibition of human J82 cell growth in a cell viability assay.

TCC-SUP = assay: cells; format: functional, cell-based, Homo sapiens; conditions: Homo sapiens, TCC-SUP;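 further: growth inhibition of TCC-SUP cells, read out with a cell viability assay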
Description: SANGER: Inhibition of human TCCSUP cell growth in a cell viability assay.

MFE-280 = assay: cells; format: functional, cell-based, Homo sapiens; conditions: Homo sapiens, MFE-280;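 further: growth inhibition of MFE-280 cells, determined with a cell viability readout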
Description: SANGER: Inhibition of human MFE-280 cell growth in a cell viability assay.

SCC-9 = assay: cells; format: functional, cell-based, Homo sapiens; conditions: Homo sapiens, SCC-9;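 further: Read-out is a cell viability assay, with values giving inhibition of cell growth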
Description: SANGER: Inhibition of human SCC-9 cell growth in a cell viability assay.

MC-IXC = assay: cells; format: functional, cell-based, Homo sapiens; conditions: Homo sapiens, MC-IXC;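 further: growth inhibition of MC-IXC cells, read out with a cell viability assay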
Description: SANGER: Inhibition of human MC-IXC cell growth in a cell viability assay.

A673 = assay: cells; format: functional, cell-based, Homo sapiens; conditions: Homo sapiens, A673;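 further: growth inhibition of human A673 cells, read out through a cell viability assay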
Description: SANGER: Inhibition of human A673 cell growth in a cell viability assay.

HCT-15 = assay: cells; format: functional, cell-based, Homo sapiens; conditions: Homo sapiens, HCT-15;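 further: cell viability readout, IC50 reflecting suppression of HCT-15 cell growth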
Description: SANGER: Inhibition of human HCT-15 cell growth in a cell viability assay.

RT-112 = assay: cells; format: functional, cell-based, Homo sapiens; conditions: Homo sapiens, RT-112
Description: SANGER: Inhibition of human RT-112 cell growth in a cell viability assay.

NCI-H28 = assay: cells; format: functional, cell-based, Homo sapiens; conditions: Homo sapiens, NCI-H28;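 further: growth inhibition of human NCI-H28 cells, read out as cell viability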
Description: SANGER: Inhibition of human NCI-H28 cell growth in a cell viability assay.

MIA PaCa-2 = assay: cells; format: functional, cell-based, Homo sapiens; conditions: Homo sapiens, MIA PaCa-2;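 further: growth inhibition of MIA PaCa-2 cells, read out with a cell viability assay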
Description: SANGER: Inhibition of human MIA-PaCa-2 cell growth in a cell viability assay.

NCI-H650 = assay: cells; format: functional, cell-based, Homo sapiens; conditions: Homo sapiens, NCI-H650;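 further: growth inhibition of NCI-H650 cells, read out by a viability assay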
Description: SANGER: Inhibition of human NCI-H650 cell growth in a cell viability assay.

NCI-H2087 = assay: cells; format: functional, cell-based, Homo sapiens; conditions: Homo sapiens, NCI-H2087;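 further: growth inhibition determined with a cell viability readout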
Description: SANGER: Inhibition of human NCI-H2087 cell growth in a cell viability assay.

GCT = assay: cells; format: functional, cell-based, Homo sapiens; conditions: Homo sapiens, GCT;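 further: GCT cell line proliferation inhibition, read out with a cell viability assay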
Description: SANGER: Inhibition of human GCT cell growth in a cell viability assay.

786-0 = assay: cells; format: functional, cell-based, Homo sapiens; conditions: Homo sapiens
Description: SANGER: Inhibition of human 786-0 cell growth in a cell viability assay.

HPAF-II = assay: cells; format: functional, cell-based, Homo sapiens; conditions: Homo sapiens, HPAF-II;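 further: growth inhibition of HPAF-II cells, read out with a cell viability assay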
Description: SANGER: Inhibition of human HPAF-II cell growth in a cell viability assay.

Huh-7 = assay: cells; format: functional, cell-based, Homo sapiens; conditions: Homo sapiens, Huh-7;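 further: HuH-7 cell growth inhibition, read out with a cell viability assay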
Description: SANGER: Inhibition of human HuH-7 cell growth in a cell viability assay.

CAL-148 = assay: cells; format: functional, cell-based, Homo sapiens; conditions: Homo sapiens, CAL-148
Description: SANGER: Inhibition of human CAL-148 cell growth in a cell viability assay.

YKG-1 = assay: cells; format: functional, cell-based, Homo sapiens; conditions: Homo sapiens, YKG-1;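 further: cell growth inhibition, read out with a viability assay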
Description: SANGER: Inhibition of human YKG-1 cell growth in a cell viability assay.

ESS-1 = assay: cells; format: functional, cell-based, Homo sapiens; conditions: Homo sapiens, ESS-1;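 further: growth inhibition of human ESS-1 cells, read out by a cell viability assay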
Description: SANGER: Inhibition of human ESS-1 cell growth in a cell viability assay.

IM-9 = assay: SANGER: Inhibition of human IM-9 cell growth in a cell viability assay.; format: functional, cell-based; conditions: Homo sapiens, IM-9
G-402 = assay: cells; format: functional, cell-based, Homo sapiens; conditions: Homo sapiens, G-402
Description: SANGER: Inhibition of human G-402 cell growth in a cell viability assay.

TALL-1 = assay: cells; format: functional, cell-based, Homo sapiens; conditions: Homo sapiens, TALL-1;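 further: growth inhibition of cultured human TALL-1 cells, read out by a cell viability assay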
Description: SANGER: Inhibition of human TALL-1 cell growth in a cell viability assay.

ABC-1 = assay: cells; format: functional, cell-based, Homo sapiens; conditions: Homo sapiens, ABC-1;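 further: growth inhibition of human ABC-1 cells, read out by a cell viability assay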
Description: SANGER: Inhibition of human ABC-1 cell growth in a cell viability assay.

NCI-H520 = assay: cells; format: functional, cell-based, Homo sapiens; conditions: Homo sapiens, NCI-H520;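 further: growth inhibition of NCI-H520 cells, measured by a cell viability assay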
Description: SANGER: Inhibition of human NCI-H520 cell growth in a cell viability assay.

NCI-H2227 = assay: cells; format: functional, cell-based, Homo sapiens; conditions: Homo sapiens, NCI-H2227;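 further: growth inhibition of the human cell line, read out with a cell viability assay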
Description: SANGER: Inhibition of human NCI-H2227 cell growth in a cell viability assay.

HSC-3 = assay: cells; format: functional, cell-based, Homo sapiens; conditions: Homo sapiens, HSC-3
Description: SANGER: Inhibition of human HSC-3 cell growth in a cell viability assay.

ASPC1 = assay: cells; format: functional, cell-based, Homo sapiens; conditions: Homo sapiens, ASPC1;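 further: growth inhibition of AsPC-1 cells, read out with a cell viability assay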
Description: SANGER: Inhibition of human AsPC-1 cell growth in a cell viability assay.

RPMI-7951 = assay: cells; format: functional, cell-based, Homo sapiens; conditions: Homo sapiens, RPMI-7951
Description: SANGER: Inhibition of human RPMI-7951 cell growth in a cell viability assay.

NCI-H64 = assay: cells; format: functional, cell-based, Homo sapiens; conditions: Homo sapiens, NCI-H64;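 further: growth inhibition of NCI-H64 cells, read out with a cell viability assay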
Description: SANGER: Inhibition of human NCI-H64 cell growth in a cell viability assay.

NCI-H1792 = assay: cells; format: functional, cell-based, Homo sapiens; conditions: Homo sapiens, NCI-H1792;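 further: growth inhibition of human NCI-H1792 cells, read out as cell viability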
Description: SANGER: Inhibition of human NCI-H1792 cell growth in a cell viability assay.

U-698-M = assay: cells; format: functional, cell-based, Homo sapiens; conditions: Homo sapiens, U-698-M
Description: SANGER: Inhibition of human U-698-M cell growth in a cell viability assay.

OE19 = assay: cells; format: functional, cell-based, Homo sapiens; conditions: Homo sapiens, OE19;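 further: growth inhibition of OE19 cells, measured through a cell viability read-out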
Description: SANGER: Inhibition of human OE19 cell growth in a cell viability assay.

NCI-H2081 = assay: cells; format: functional, cell-based, Homo sapiens; conditions: Homo sapiens, NCI-H2081;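 further: growth inhibition of human NCI-H2081 cells, read out with a cell viability assay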
Description: SANGER: Inhibition of human NCI-H2081 cell growth in a cell viability assay.

NCI-H2171 = assay: cells; format: functional, cell-based, Homo sapiens; conditions: Homo sapiens, NCI-H2171;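 further: growth inhibition of human NCI-H2171 cells, read out by a cell viability assay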
Description: SANGER: Inhibition of human NCI-H2171 cell growth in a cell viability assay.

KYSE-140 = assay: cells; format: functional, cell-based, Homo sapiens; conditions: Homo sapiens, KYSE-140;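 further: cell viability assay measuring growth inhibition in human KYSE-140 cells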
Description: SANGER: Inhibition of human KYSE-140 cell growth in a cell viability assay.

HCC1395 = assay: cells; format: functional, cell-based, Homo sapiens; conditions: Homo sapiens, HCC1395;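 further: growth inhibition of HCC1395 cells, read out by a cell viability assay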
Description: SANGER: Inhibition of human HCC1395 cell growth in a cell viability assay.

NCI-H2452 = assay: cells; format: functional, cell-based, Homo sapiens; conditions: Homo sapiens, NCI-H2452;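 further: growth inhibition of NCI-H2452 cells, read out with a cell viability assay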
Description: SANGER: Inhibition of human NCI-H2452 cell growth in a cell viability assay.

CMK = assay: cells; format: functional, cell-based, Homo sapiens; conditions: Homo sapiens, CMK;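 further: growth inhibition of CMK cells, read out as cell viability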
Description: SANGER: Inhibition of human CMK cell growth in a cell viability assay.

SCC-4 = assay: cells; format: functional, cell-based, Homo sapiens; conditions: Homo sapiens, SCC-4;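 further: growth inhibition of human SCC-4 cells, read out as cell viability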
Description: SANGER: Inhibition of human SCC-4 cell growth in a cell viability assay.

ME-180 = assay: cells; format: functional, cell-based, Homo sapiens; conditions: Homo sapiens, ME-180;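 further: cell viability assay measuring growth inhibition of ME-180 cells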
Description: SANGER: Inhibition of human ME-180 cell growth in a cell viability assay.

MHH-CALL-2 = assay: cells; format: functional, cell-based, Homo sapiens; conditions: Homo sapiens, MHH-CALL-2;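 further: growth inhibition of the cell line, read out in a cell viability assay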
Description: SANGER: Inhibition of human MHH-CALL-2 cell growth in a cell viability assay.

LB647-SCLC = assay: cells; format: functional, cell-based, Homo sapiens; conditions: Homo sapiens, LB647-SCLC;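 further: cell growth inhibition, read out by a viability assay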
Description: SANGER: Inhibition of human LB647-SCLC cell growth in a cell viability assay.

ST486 = assay: SANGER: Inhibition of human ST486 cell growth in a cell viability assay.; format: functional, cell-based; conditions: Homo sapiens, ST486
A2780 = assay: cells; format: functional, cell-based, Homo sapiens; conditions: Homo sapiens, A2780;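 further: growth inhibition of A2780 cells, read out with a cell viability assay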
Description: SANGER: Inhibition of human A2780 cell growth in a cell viability assay.

HLE = assay: cells; format: functional, cell-based, Homo sapiens; conditions: Homo sapiens, HLE;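 further: growth inhibition of human HLE cells, read out by a cell viability assay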
Description: SANGER: Inhibition of human HLE cell growth in a cell viability assay.

YT = assay: cells; format: functional, cell-based, Homo sapiens; conditions: Homo sapiens, YT
Description: SANGER: Inhibition of human YT cell growth in a cell viability assay.

Work on `Cc1cc([N+](=O)[O-])ccc1NS(=O)(=O)c1cc(Cl)ccc1Cl` yielded an IC50 (EB-3) of 4.25 µM, an IC50 (J82) of 2.62 µM and an IC50 (TCC-SUP) of 4.81 µM. For the same molecule, the IC50 (MFE-280) was 2.77 µM, the IC50 (SCC-9) was > 32 µM and the IC50 (MC-IXC) was 2.51 µM. For the same molecule, the IC50 (A673) was 3 µM, the IC50 (HCT-15) was 6.87 µM and the IC50 (RT-112) was 6.11 µM. The IC50 (NCI-H28) was 8.5 µM, the IC50 (MIA PaCa-2) was 0.601 µM and the IC50 (NCI-H650) was 2.78 µM. It also gave an IC50 (NCI-H2087) of 2.16 µM, an IC50 (GCT) of 2.93 µM and an IC50 (786-0) of 3.92 µM. It also gave an IC50 (HPAF-II) of 10.7 µM, an IC50 (Huh-7) of 1.57 µM and an IC50 (CAL-148) of 13.7 µM. It also gave an IC50 (YKG-1) of 5.66 µM, an IC50 (ESS-1) of 7.38 µM and an IC50 (IM-9) of 14.1 µM. It also gave an IC50 (G-402) of 4.65 µM, an IC50 (TALL-1) of 6.23 µM and an IC50 (ABC-1) of 3.41 µM. The IC50 (NCI-H520) was 6.2 µM, the IC50 (NCI-H2227) was > 32 µM and the IC50 (HSC-3) was 2.89 µM. The IC50 (ASPC1) was 22.3 µM, the IC50 (RPMI-7951) was 29.3 µM and the IC50 (NCI-H64) was > 32 µM. The IC50 (NCI-H1792) was 8.53 µM, the IC50 (U-698-M) was 1.81 µM and the IC50 (OE19) was 3.78 µM. The IC50 (NCI-H2081) was > 32 µM, the IC50 (NCI-H2171) was > 32 µM and the IC50 (KYSE-140) was 4.58 µM. For the same molecule, the IC50 (HCC1395) was 0.381 µM, the IC50 (NCI-H2452) was > 32 µM and the IC50 (CMK) was 4.81 µM. The IC50 (SCC-4) was 13.8 µM, the IC50 (ME-180) was 2.82 µM and the IC50 (MHH-CALL-2) was 18.2 µM. For the same molecule, the IC50 (LB647-SCLC) was > 32 µM, the IC50 (ST486) was 4.83 µM and the IC50 (A2780) was 5.49 µM. It also gave an IC50 (HLE) of 1.99 µM and an IC50 (YT) of 1.83 µM.

For `Oc1ccc2ccccc2c1SSc1c(O)ccc2ccccc12`, the IC50 (EB-3) was 10.5 µM, the IC50 (J82) was 7.05 µM and the IC50 (TCC-SUP) was > 32 µM. The IC50 (MFE-280) was > 32 µM, the IC50 (SCC-9) was > 32 µM and the IC50 (MC-IXC) was > 32 µM. For the same molecule, the IC50 (A673) was > 32 µM, the IC50 (HCT-15) was > 32 µM and the IC50 (RT-112) was 27.3 µM. The IC50 (NCI-H28) was > 32 µM, the IC50 (MIA PaCa-2) was 18.1 µM and the IC50 (NCI-H650) was > 32 µM. For the same molecule, the IC50 (NCI-H2087) was > 32 µM, the IC50 (GCT) was > 32 µM and the IC50 (786-0) was 3.32 µM. The IC50 (HPAF-II) was > 32 µM, the IC50 (Huh-7) was > 32 µM and the IC50 (CAL-148) was > 32 µM. For the same molecule, the IC50 (YKG-1) was > 32 µM, the IC50 (ESS-1) was > 32 µM and the IC50 (IM-9) was 7.93 µM. For the same molecule, the IC50 (G-402) was > 32 µM, the IC50 (TALL-1) was > 32 µM and the IC50 (ABC-1) was > 32 µM. For the same molecule, the IC50 (NCI-H520) was > 32 µM, the IC50 (NCI-H2227) was > 32 µM and the IC50 (HSC-3) was > 32 µM. The IC50 (ASPC1) was > 32 µM, the IC50 (RPMI-7951) was > 32 µM and the IC50 (NCI-H64) was > 32 µM. The IC50 (NCI-H1792) was > 32 µM, the IC50 (U-698-M) was 3.24 µM and the IC50 (OE19) was > 32 µM. The IC50 (NCI-H2081) was > 32 µM, the IC50 (NCI-H2171) was > 32 µM and the IC50 (KYSE-140) was > 32 µM. For the same molecule, the IC50 (HCC1395) was > 32 µM, the IC50 (NCI-H2452) was > 32 µM and the IC50 (CMK) was 3.15 µM. The IC50 (SCC-4) was > 32 µM, the IC50 (ME-180) was > 32 µM and the IC50 (MHH-CALL-2) was > 32 µM. For the same molecule, the IC50 (LB647-SCLC) was 7.3 µM, the IC50 (ST486) was 4.87 µM and the IC50 (A2780) was 28.4 µM. It also gave an IC50 (HLE) of 4.52 µM and an IC50 (YT) of 1.39 µM.
